US11203757B2, “Use of Rad18 inhibitors in the treatment of tumors” (Centre National De La Recherche Scientifique, priority 2014, dated 2021)

Experiments:
Type in all cases: cell-based
[1] = system: U87-MG glioblastoma cells; test: CellTiter-Glo cell viability of U87-MG cells treated with P2207; settings: indicated doses of P2207, 48 h post-treatment, FIG. 7
Method: FIG. 7. […] Survival curves of U87-MG glioblastoma cells treated with the indicated doses of the USP7 inhibitor P2207 (Sigma-Aldrich), or DMSO as a control. Means and standard deviations are shown (n=3). Cell viability is expressed as percent (%) of viability compared to the control (DMSO).
Cells were plated at 1.0×10^4 cells/well in 12-well plates and exposed to the indicated amount of P2207 inhibitor (Sigma) or DMSO as control. 48 h post-treatment, cell viability was determined using the CellTiter-Glo luminescent cell viability assay (Promega).

[2] = system: U87 glioblastoma cell line; test: Cell viability of U87 cells transfected with Rad18 siRNA and challenged with cisplatin; settings: U87 cells co-transfected with siRNA and empty vector, increasing cisplatin, CellTiter-Glo; rescued by re-expression of Rad18
Description: (E) Survival curves of U87 glioblastoma cells co-transfected with empty vector and non-specific siRNA (siLuc+EV), or Rad18-specific siRNA and empty vector (siRad18+EV) and rescued by co-transfection with Rad18 (siRad18+Rad18), challenged with the indicated doses of cisplatin (CisPt) normalized to non-treated cells (mock). Means and standard deviations are shown (n=3).
U87 cells were co-transfected either with siRNA Rad18 (GAG GAU UCU UCU AGC UGU A; SEQ ID NO:3) or siRNA Luciferase (Luc) as a control and an empty vector (pcDNA3) or Rad18 expressing vector using JETPrime reagent (Polyplus). Twenty-four hours after transfection, cells were trypsinized and seeded in 12 wells plates at a density of 10 000 cells/well. Twenty-four hours later cells were treated with increasing concentration of cisplatin (Sigma).
Cells were plated at 1×10^4 per well in twelve-well plates and UV-irradiated or exposed to the indicated amount of cisplatin (CisPt, Sigma). 48 hours after irradiation, cell viability was determined using the CellTiter-Glo® Luminescent Cell Viability assay (Promega).

[3] = system: Gb4 glioblastoma cancer stem cells; test: Proliferation of gliospheres after Rad18 siRNA treatment; settings: 72 hours post-treatment, absence of external damage, versus control siRNA (siLuc)
Method: FIG. 6. Rad18 downregulation affects the proliferation of glioblastoma cancer stem cells in the absence of external damage. (A) Western blot of Gb4 glioblastoma cancer stem cells extracts treated with control siRNA (siLuc, lane 1), or a Rad18-specific siRNA (siRad18, lane 2) analysed 72 hours post-treatment. Extracts were probed with anti-Rad18 or anti-PCNA antibodies. (B) Phase contrast microscopy images of gliospheres treated with control siRNA or Rad18-specific siRNA 72 hours post-treatment. (C) Quantification of gliospheres proliferation upon downregulation of Rad18 expression expressed as number of cells. Glioblastoma cancer stem cells extracts were treated as described in panel A and cells were counted before (0 h) or 72 hours post-treatment (72 h).
Glioblastoma cancer stem cells (Gliospheres, Gb4 and Gb7 cell lines) were isolated from patients as described in Clarion et al, 2014.
Cells were maintained in DMEM-F12 (Lonza, Levallois-Perret, France) supplemented with B27 and N2 (Invitrogen, LifeTechnologies, Saint Aubin, France), 25 ng/ml of FGF-2 and EGF (Peprotech, Neuilly sur Seine, France) at 37° C. in 5% CO2 humidified incubators.
Gb4 glioblastoma cancer stem cells extracts, treated with control siRNA or a Rad18-specific siRNA (SEQ ID NO:3) were analysed 72 hours post-treatment. […]

## CC(=O)c1cc([N+](=O)[O-])c(Sc2ccc(F)cc2F)s1 [P2207]
[1]
  sensitization of glioblastoma to cisplatin treatment (cell viability, % of DMSO control): sensitizes glioblastoma to cisplatin treatment

## GAG GAU UCU UCU AGC UGU A (GAGGAUUCUUCUAGCUGUA; listed as RNA, chemistry not given here) [Rad18-specific siRNA]
[2]
  sensitivity to cisplatin (cell viability): strong sensitivity to cisplatin
[3]
  proliferation of gliospheres (number of cells): affect the proliferation of gliospheres
